Assay results reported in publication PMC4161306, “Regulation of Arabidopsis Flowering by the Histone Mark Readers MRG1/2 via Interaction with CONSTANS to Modulate FT Expression” (PLoS Genetics, 2014).

Experiments:
[1] = system: chromodomain of MRG1 (His-MRG1N); assay: Dot-blot / pull-down binding assay, His-MRG1N with methylated H3 peptides; parameters: species or system Arabidopsis; conditions: Figure 1A, N-terminal His-tagged chromodomain, peptides residues 1–21 (K4, K9) or 21–44 (K27, K36)
Procedure: (§1) For the dot-blot binding assay, MRG1N (1–321, AT4G37280) and MRG2N (1–369, AT1G02740) cDNA were amplified by primers MRG1-1/MRG1-2 and MRG2-1/MRG2-2, respectively, and cloned into a pET-30a vector (Novagen, www.novagen.com). Site mutation was generated using a Takara MutanBEST Kit (http://www.takara-bio.com) with primers MRG2-3/MRG2-4. The in vitro binding assay of the chromodomain containing proteins with the histone peptides were performed as described previously. Methylated H3K4 (H3K4me1/2/3, residues 1–21), H3K9 (H3K9me1/2/3, residues 1–21), H3K27 (H3K27me1/2/3, residues 21–44), and H3K36 (H3K36me1/2/3, residues 21–44) peptides were synthesized by Scilight Biotechnology (http://www.scilight-peptide.com). Anti-monomethyl-H3K4 (07-436), anti-dimethyl-H3K4 (07-030), anti-trimethyl-H3K4 (07-473), anti-trimethyl-H3K9 (07-442), and anti-trimethyl-H3K27 (07-449) were purchased from Millipore (http://www.millipore.com), and anti-monomethyl-H3K36 (ab9048), anti-dimethyl-H3K36 (ab9049), and anti-trimethyl-H3K36 (ab9050) were purchased from Abcam (http://www.abcam.com).

[2] = system: chromodomain of MRG2 (His-MRG2N); assay: Dot-blot / pull-down binding assay, His-MRG2N with methylated H3 peptides; parameters: species or system Arabidopsis; conditions: Figure 1A, N-terminal His-tagged chromodomain, peptides residues 1–21 (K4, K9) or 21–44 (K27, K36)
Procedure: as §1

[3] = In vitro peptide pull-down from nuclear extracts with mass spectrometry; type: binding, Arabidopsis; conditions: biotinylated H3 peptides (amino acids 21 to 44) on streptavidin-coated beads
Procedure: An in vitro peptide pull-down assay was used to identify the proteins that bind to histone H3 tail methylated at K36. Biotinylated histone H3 peptides (amino acids 21 to 44), with either unmethylated (control) or tri-methylated K36, were immobilized on the streptavidin-coated beads and incubated with Arabidopsis nuclear extracts. […] Members in this group have the same domain organization, with a chromodomain (chromatin organization modifier domain) near the N-terminus, and a MRG domain near the C-terminus (Figure S1). MRG2 has a homolog in Arabidopsis, MRG1, which shares with MRG2 49% identity and 65% similarity at the amino acid sequence level.

EAF3 = conditions: ref [29]; cited from earlier work
Excerpt: Firstly, via their chromodomain, MRG1/2 proteins act as readers that recognize methylated H3K4 and H3K36.

[4] = system: Y87A substitution in MRG2 chromodomain (His-MRG2N(Y87A)); assay: Dot-blot binding assay, His-MRG2N(Y87A) with methylated H3 peptides; parameters: species or system Arabidopsis; conditions: Figure 7B; Tyr87Ala mutation in MRG2
Procedure: as §1

Substance | binding to chromodomain of MRG1 [1] | binding to chromodomain of MRG2 [2] | protein bound from nuclear extract [3] | binding to EAF3 (EAF3) | association with MRG2 Y87A [4]
H3K36me2: methylated H3K36 peptide, residues 21–44 (dot-blot) | could bind | could bind | – | – | –
H3 peptides tri-methylated at K36: Biotinylated histone H3 peptides (amino acids 21 to 44) with tri-methylated K36 | – | – | identified MRG2 | – | –
H3K36me3: methylated H3K36 peptide, residues 21–44 (dot-blot) | could bind | could bind | – | bind | disrupted its association
mono-methylated H3K4: methylated H3K4 peptide, residues 1–21 (dot-blot) | not | – | – | – | –
mono-methylated H3K36: methylated H3K36 peptide, residues 21–44 (dot-blot) | not | – | – | – | –
H3K4me3: methylated H3K4 peptide, residues 1–21 (dot-blot), Scilight Biotechnology | could bind | could bind | – | only very weakly | disrupted its association
H3K4me2: methylated H3K4 peptide, residues 1–21 (dot-blot) | could bind | could bind | – | – | –
